How the values were obtained:
bedstraw = test: Test B pre/postemergence bedstraw; format: in vivo, Galium aparine
Procedure, shortened: (§1)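 Response is a visual 0-to-10 score relative to untreated plants, where 0 means no effect and 10 means complete control, taken twelve to sixteen days after application. Treatments went onto soil at planting and onto foliage of 1- to 4-leaf plants, using a surfactant-containing non-phytotoxic solvent.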

surinam grass = test: Test B pre/postemergence surinam grass; format: in vivo, Brachiaria decumbens
Procedure, shortened: as §1

cocklebur = test: Test B pre/postemergence cocklebur; format: in vivo, Xanthium strumarium
Procedure, shortened: as §1

corn = test: Test B pre/postemergence corn; format: in vivo, Zea mays
Procedure, shortened: as §1

crabgrass = test: Test B pre/postemergence crabgrass; format: in vivo, Digitaria sanguinalis
Procedure, shortened: as §1

giant foxtail = test: Test B pre/postemergence giant foxtail; format: in vivo, Setaria faberii
Procedure, shortened: as §1

morningglory = test: Test B pre/postemergence morningglory; format: in vivo, Ipomoea hederacea
Procedure, shortened: as §1

pigweed = test: Test B pre/postemergence pigweed; format: in vivo, Amaranthus retroflexus
Procedure, shortened: as §1

rape = test: Test B pre/postemergence rape; format: in vivo, Brassica napus
Procedure, shortened: as §1

soybean = test: Test B pre/postemergence soybean; format: in vivo, Glycine max
Procedure, shortened: as §1

sugar beet = test: Test B pre/postemergence sugar beet; format: in vivo, Beta vulgaris
Procedure, shortened: as §1

velvetleaf = test: Test B pre/postemergence velvetleaf; format: in vivo, Abutilon theophrasti
Procedure, shortened: as §1

wheat = test: Test B pre/postemergence wheat; format: in vivo, Triticum aestivum
Procedure, shortened: as §1

purple nutsedge = test: Test B pre/postemergence purple nutsedge; format: in vivo, Cyperus rotundus
Procedure, shortened: as §1

duck salad = test: Test B flood test duck salad; format: in vivo, Heteranthera limosa
Procedure, shortened: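 Each value is a visual injury score relative to controls, with 10 meaning complete control and 0 no effect. Evaluation took place twelve to sixteen days after the 2-leaf-stage plants were treated and kept in the greenhouse.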

[1] = Preemergence, Rate 62 g/ha, scale of 0 to 10 where 0 is no effect and 10 is complete control
[2] = Preemergence, Rate 250 g/ha, scale of 0 to 10 where 0 is no effect and 10 is complete control
[3] = Preemergence, Rate 500 g/ha, scale of 0 to 10 where 0 is no effect and 10 is complete control
[4] = Rate 62 g/ha, Postemergence, scale of 0 to 10 where 0 is no effect and 10 is complete control
[5] = Rate 125 g/ha, Postemergence, scale 0 to 10
[6] = Rate 125 g/ha, Preemergence, scale of 0 to 10 where 0 is no effect and 10 is complete control
[7] = Rate 500 g/ha, Postemergence, scale 0 to 10

C#CCn1c(=O)on(C(=O)N(c2ccc(F)cc2)C(C)C)c1=O [Compound 212]
3: Morningglory plant response rating (morningglory; [5]) | Rape plant response rating (rape; [7]) | Plant response rating (0 to 10; 0 is no effect, 10 is complete control), Soybean (soybean; Rate 250 g/ha, Postemergence) | Velvetleaf plant response rating (velvetleaf; [4])
5: B. signalgrass plant response rating (surinam grass; Preemergence, Rate 250 g/ha, scale 0 to 10, 0 is no effect, 10 is complete control) | Plant response rating, B. signalgrass (surinam grass; [3]) | Cocklebur plant response rating (cocklebur; [7]) | Crabgrass plant response rating (crabgrass; [2]) | Plant response rating, Crabgrass (crabgrass; [3]) | Redroot pigweed plant response rating (pigweed; [5]) | Sugarbeets plant response rating (sugar beet; [2]) | Sugarbeets plant response rating (sugar beet; [6]) | Sugarbeets plant response rating (sugar beet; [7]) | Velvetleaf plant response rating (velvetleaf; [2]) | Plant response rating, Velvetleaf (velvetleaf; [3]) | Plant response rating (0 to 10; 0 is no effect, 10 is complete control), Velvetleaf (velvetleaf; Rate 250 g/ha, Postemergence) | Wheat plant response rating (wheat; [2])
4: B. signalgrass plant response rating (surinam grass; Rate 125 g/ha, Postemergence, scale 0 (no effect) to 10 (complete control)) | Crabgrass plant response rating (crabgrass; [6]) | Giant foxtail plant response rating (giant foxtail; [4]) | Giant foxtail plant response rating (giant foxtail; [6]) | Plant response rating (0 to 10; 0 is no effect, 10 is complete control), Morningglory (morningglory; Rate 250 g/ha, Postemergence) | Soybean plant response rating (soybean; [7]) | Velvetleaf plant response rating (velvetleaf; [5])
9: Crabgrass plant response rating (crabgrass; [7]) | Giant foxtail plant response rating (giant foxtail; [2]) | Giant foxtail plant response rating (giant foxtail; [7]) | Redroot pigweed plant response rating (pigweed; [1]) | Redroot pigweed plant response rating (pigweed; [6])
10: Plant response rating, Bedstraw (bedstraw; [3]) | Plant response rating, Giant foxtail (giant foxtail; [3]) | Redroot pigweed plant response rating (pigweed; [2]) | Plant response rating, Redroot pigweed (pigweed; [3])
8: Plant response rating (0 to 10; 0 is no effect, 10 is complete control), Crabgrass (crabgrass; Rate 250 g/ha, Postemergence) | Morningglory plant response rating (morningglory; [7]) | Plant response rating, Rape (rape; [3]) | Plant response rating, Sugarbeets (sugar beet; [3])
1: B. signalgrass plant response rating (surinam grass; [6]) | Soybean plant response rating (soybean; [4])
2: Plant response rating (0 to 10; 0 is no effect, 10 is complete control), Bedstraw (bedstraw; Rate 250 g/ha, Postemergence) | B. signalgrass plant response rating (surinam grass; [4]) | Cocklebur plant response rating (cocklebur; [4]) | Cocklebur plant response rating (cocklebur; [5]) | Plant response rating (0 to 10; 0 is no effect, 10 is complete control), Cocklebur (cocklebur; Rate 250 g/ha, Postemergence) | Giant foxtail plant response rating (giant foxtail; [1]) | Morningglory plant response rating (morningglory; [4]) | Soybean plant response rating (soybean; [5]) | Velvetleaf plant response rating (velvetleaf; [1]) | Ducksalad plant response rating (duck salad; Rate 500 g/ha, Pre-emergence, flood test species, scale 0 to 10 (0 no effect, 10 complete control))
7: Bedstraw plant response rating (bedstraw; [7]) | Plant response rating (0 to 10; 0 is no effect, 10 is complete control), B. signalgrass (surinam grass; Rate 250 g/ha, Postemergence) | B. signalgrass plant response rating (surinam grass; Rate 500 g/ha, Postemergence, scale 0 to 10, 0 no effect, 10 complete control) | Redroot pigweed plant response rating (pigweed; [7]) | Plant response rating, Wheat (wheat; [3])
0: Bedstraw plant response rating (bedstraw; [1]) | Bedstraw plant response rating (bedstraw; [2]) | Bedstraw plant response rating (bedstraw; [4]) | Bedstraw plant response rating (bedstraw; [5]) | Bedstraw plant response rating (bedstraw; [6]) | B. signalgrass plant response rating (surinam grass; [1]) | Cocklebur plant response rating (cocklebur; [1]) | Cocklebur plant response rating (cocklebur; [2]) | Plant response rating, Cocklebur (cocklebur; [3]) | Corn plant response rating (corn; [1]) | Corn plant response rating (corn; [2]) | Plant response rating, Corn (corn; [3]) | Corn plant response rating (corn; [4]) | Corn plant response rating (corn; [5]) | Corn plant response rating (corn; [6]) | Plant response rating (0 to 10; 0 is no effect, 10 is complete control), Corn (corn; Rate 250 g/ha, Postemergence) | Corn plant response rating (corn; [7]) | Crabgrass plant response rating (crabgrass; [1]) | Morningglory plant response rating (morningglory; [1]) | Morningglory plant response rating (morningglory; [2]) | Plant response rating, Morningglory (morningglory; [3]) | Morningglory plant response rating (morningglory; [6]) | Redroot pigweed plant response rating (pigweed; [4]) | Rape plant response rating (rape; [1]) | Rape plant response rating (rape; [4]) | Rape plant response rating (rape; [5]) | Rape plant response rating (rape; [6]) | Plant response rating (0 to 10; 0 is no effect, 10 is complete control), Rape (rape; Rate 250 g/ha, Postemergence) | Soybean plant response rating (soybean; [1]) | Soybean plant response rating (soybean; [2]) | Plant response rating, Soybean (soybean; [3]) | Soybean plant response rating (soybean; [6]) | Sugarbeets plant response rating (sugar beet; [1]) | Sugarbeets plant response rating (sugar beet; [4]) | Sugarbeets plant response rating (sugar beet; [5]) | Plant response rating (0 to 10; 0 is no effect, 10 is complete control), Sugarbeets (sugar beet; Rate 250 g/ha, Postemergence) | Wheat plant response rating (wheat; [1]) | Wheat plant response rating (wheat; [4]) | Wheat plant response rating (wheat; [5]) | Wheat plant response rating (wheat; [6]) | Plant response rating (0 to 10; 0 is no effect, 10 is complete control), Wheat (wheat; Rate 250 g/ha, Postemergence) | Nutsedge plant response rating (purple nutsedge; [1]) | Nutsedge plant response rating (purple nutsedge; [2]) | Plant response rating, Nutsedge (purple nutsedge; [3]) | Nutsedge plant response rating (purple nutsedge; [4]) | Nutsedge plant response rating (purple nutsedge; [5]) | Nutsedge plant response rating (purple nutsedge; [6]) | Plant response rating (0 to 10; 0 is no effect, 10 is complete control), Nutsedge (purple nutsedge; Rate 250 g/ha, Postemergence) | Nutsedge plant response rating (purple nutsedge; [7]) | Ducksalad plant response rating (duck salad; Rate 62 g/ha, headed Pre-emergence (flood test species), scale 0 to 10 (0 no effect, 10 complete control)) | Ducksalad plant response rating (duck salad; Rate 125 g/ha, Pre-emergence, flood test species, scale 0 to 10 where 0 is no effect and 10 is complete control) | Ducksalad plant response rating (duck salad; Rate 250 g/ha, Pre-emergence, flood-test species, scale 0 to 10, 0 is no effect, 10 is complete control)
6: Crabgrass plant response rating (crabgrass; [4]) | Crabgrass plant response rating (crabgrass; [5]) | Giant foxtail plant response rating (giant foxtail; [5]) | Plant response rating (0 to 10; 0 is no effect, 10 is complete control), Giant foxtail (giant foxtail; Rate 250 g/ha, Postemergence) | Rape plant response rating (rape; [2])

From patent US6737383B1, “Herbicidal oxadiazolidines” (priority 1999, dated 2004)
